According to patent US20160002240A1, “NUCLEOSIDE ANALOG SALTS WITH IMPROVED SOLUBILITY AND METHODS OF FORMING SAME” (THE BOARD OF TRUSTEES OF THE UNIVERSITY OF ALABAMA, priority 2013, published 2016):
Values joined by “and” are separate entries in the source; they are usually repeats but may differ in a detail not shown here. Equal values may be shown once. Read-outs that look alike come from different tables or passages of the source. Marks after values point to notes of the source that are not given here.

Columns and labels:
[1] = Thermogravimetric analysis (thermal stability); format: physicochemical; settings: for T5%onset: Table 4, onset temperature of initial 5 wt % mass loss, nitrogen, 5° C./min
Method: TGA experiments were performed on a Mettler Toledo TGA/DSC1 Star unit under a stream of nitrogen. Samples (5-20 mg) were placed on a platinum pan and were heated from 25° C. to 800° C. with a constant heating rate of 5° C./min and with a 30 min isotherm at 75° C. to remove any remaining volatiles. Decomposition temperatures (T5% onset) were reported as the onset temperature with respect to the initial 5 wt % mass loss.

[2] = Solubility in deionized water, UV absorbance at 254 nm with calibration curve
Method: The UV-VIS spectra used for development of calibration curves and for determination of the solubility values were performed on a Varian CARY 3 UV-Visible Spectrophotometer.
After filtering through Teflon syringe filters 0.2 μm), UV was used to determine the absorbance at 254 nm. A calibration curve of the compound in water was used to determine the concentration.
In a vial, 5.500 g [Cho][Acy] was mixed with 2 mL DI H2O.
(§1) A calibration curve of the compound in water was used to determine the concentration.
In a vial, 0.500 g [N1,1,1,16][Acy] was suspended in 1 mL DI H2O. The mixture was stirred for 24 h at room temperature. […] After filtering through a Teflon syringe filter (0.2 μm), 0.1 mL solution was diluted to 25 mL with DI H2O and its absorbance at 254 nm was determined.
as §1
In a vial, 4.8 g [P4,4,4,4][Acy] was suspended in 2 mL DI H2O. The mixture was stirred for 24 h at room temperature.
In a vial, 0.150 g [Acy]HCl was suspended in 1 mL DI H2O. The mixture was stirred for 24 h at room temperature. […] After filtering, 0.1 mL solution was diluted to 25 mL with DI H2O and its absorbance was determined.
In a vial, 0.2 g [Acy][Doc] was suspended in 1.5 mL DI H2O. […] To about 0.3 mL of this emulsion, water was added dropwise (mixing well each time after water was added) until a more clear mixture was obtained. […] The mixture was sonicated for about 30 min; this process (add water, sonication) was repeated until a clear solution was obtained. 0.5 mL of the clear solution obtained was diluted to 50 mL with DI H2O and UV was used to determine the absorbance at 254 nm.
as §1

[3] = Solubility in simulated biological fluids (PBS, SIF, SGF); settings: for Solubility in PBS (pH = 7.4): phosphate buffer saline pH 7.4
Method: For all solvents used (water, Phosphate Buffer Solution (PBS), Simulated Gastric Fluid (SGF), Simulated Intestinal Fluid (SIF)) same amount of compound/solvent was used: 0.1 g compound/0.5 mL solvent. The solutions were stirred at room temperature for 24 h. The resulting suspensions were filtered through a 0.2 μm Teflon syringe filter to obtain clear solutions. […] Deuterated dmso (dmso-d6) containing 0.05% (v/v) TMS (as internal standard) was used to run the ^1H-NMR. 0.1 mL of the filtered solutions were combined with 0.4 mL dmso-d6 w/ 0.05% (v/v) TMS (corresponding to 1.836×10-6 mols TMS). The solubility values were determined from the molar ratio between the peaks corresponding to the compound and TMS.
Solubility experiments were conducted as described in example 12.

[4] = cited from earlier work
[5] = at 25° C.; cited from earlier work
[6] = quantitative NMR, room temperature, 24 h
[7] = simulated intestinal fluid pH 6.8 without pancreatin, quantitative NMR

| Compound | T5%onset [1] | Water solubility [2] | Water solubility mg/mL (g/L) [2] | Water solubility mol/L [2] | also measured |
| --- | --- | --- | --- | --- | --- |
| Nc1nc2c(ncn2COCCO)c(=O)[nH]1 [[N4,4,4,1][Acy] (2)] [tributylmethylammonium acyclovir] | 115 °C |  |  |  |  |
| Nc1nc2c(ncn2COCCO)c(=O)[nH]1 [[N1,1,1,16][Acy] (3)] [trimethylhexadecylammonium acyclovir] | 150 °C | 252.18 mg/mL | 252.18 mg/mL (g/L) | 0.4957 (4) mol/L |  |
| Nc1nc2c(ncn2COCCO)c(=O)[nH]1 [[N4,4,4,4][Acy] (5)] [tetrabutylammonium acyclovir] | 132 °C |  |  |  | Solubility in PBS (pH = 7.4) [3, 6]: 1.0 mg ‘acyclovir’/mL; Solubility in SIF (pH = 6.8) [3, 7]: 144.0 mg ‘acyclovir’/mL |
| Nc1nc2c(ncn2COCCO)c(=O)[nH]1 [Acyclovir, reference compound] | 240 °C | 1.42 mg/mL | 1.42 mg/mL (g/L) | 0.0063 (0) mol/L | Solubility in PBS (pH = 7.4) ([3]; determined using UV-Vis): 1.4^b mg ‘acyclovir’/mL; Solubility in PBS (pH = 7.4) [3, 6]: 1.5 mg ‘acyclovir’/mL; Solubility in SIF (pH = 6.8) [3, 7]: 2.22 mg ‘acyclovir’/mL; Oral bioavailability [4]: 10-20%; Water solubility, literature value [5]: 5.77 mM |
| Nc1nc2c(ncn2COCCO)c(=O)[nH]1 [[Cho][Acy] (1)] [choline acyclovir] | 128 °C | 1019.42 mg/mL | 1019.42 mg/mL (g/L) | 3.1045 (81) mol/L |  |
| acyclovir docusate [[H2Acy][Doc] (7)] |  |  |  |  | Stability of emulsion in water [2]: at least 48 h |
| Nc1nc2c(ncn2COCCO)c(=O)[nH]1 [[P4,4,4,4][Acy] (4)] [tetrabutylphosphonium acyclovir] | 221 °C | 803.89 mg/mL | 803.89 mg/mL (g/L) | 1.6622 (41) mol/L | T5% onset (onset for 5% decomposition from TGA) [1]: 221 °C |
| CC(C)[C@H](N)C(=O)OCCOCn1cnc2c(=O)[nH]c(N)nc21 [valacyclovir] |  |  |  |  | Oral bioavailability [4]: about 55% |
| Cl.Nc1nc2c(ncn2COCCO)c(=O)[nH]1 [[H2Acy]Cl (6), acyclovir hydrochloride] | 156 °C |  |  |  | Solubility in SGF (pH = 1.2) ([3]; pH 1.2): 292.8 mg ‘acyclovir’/mL; Solubility in SIF (pH = 6.8) ([3]; pH 6.8): 167.0 mg ‘acyclovir’/mL |
| Nc1nc2c(ncn2COCCO)c(=O)[nH]1 [[H2Acy][Doc] (7)] [acyclovir docusate] | 122 °C | 8.48 mg/mL | 8.47 mg/mL (g/L) | 0.0131 (0) mol/L | Solubility in deionized water, average [2]: 8.46 mg/mL; Solubility in deionized water, single determination ([2]; room temperature, stirred 24 h (acyclovir overnight), individual replicate (1st, 2nd, 3rd)): 13.06 mM and 13.05 mM; Solubility in deionized water, average ([2]; room temperature, average of replicates, text of Examples): 13.06 mM |
